Here are results for four molecules from US20120077957A1, “Lactam-Bridged Melanocortin Receptor-Specific Peptides” (PALATIN TECHNOLOGIES, INC., priority 2009, published 2012).

Where two headings read alike, the source gives them in different places. Bridge positions count the residues as written; N and C are the ends. Square brackets hold non-standard residues; d marks the D form. Peptide text beside a SMILES is read from it.

Assay [1] has as its target T1, human MC4-R (Homo sapiens, UniProt P32245).
T1 construct: expressed in transfected cells; host or cells: HEK293 T-REx (tetracycline-regulated, Invitrogen); cell line from Palatin Technologies with license from the University of Michigan
The experiment in a line: Competitive inhibition binding assay with [I125]-NDP-α-MSH or Eu-NDP-α-MSH, membranes of HEK-293 cells expressing recombinant hMC4-R. How it is done:
A competitive inhibition binding assay was performed using membrane homogenates prepared from HEK-293 cells that express recombinant hMC4-R, hMC3-R, or hMC5-R, and from B-16 mouse melanoma cells (containing endogenous MC1-R). In some instances, HEK-293 cells that express recombinant hMC1-R were employed. In the examples that follow, all MC3-R, MC4-R and MC5-R values are for human recombinant receptors. […] After incubation for 60 minutes at 37° C., the assay mixture was filtered and the membranes washed three times with ice-cold buffer. Filters were dried and counted in a gamma counter for bound radioactivity. […] Maximal specific binding (100%) was defined as the difference in radioactivity (cpm) bound to cell membranes in the absence and presence of 1 μM NDP-α-MSH. […] Ki values for test peptides of the present invention were determined using Graph-Pad Prism® curve-fitting software.
Alternatively, a competitive inhibition binding assay was performed employing Eu-NDP-α-MSH (PerkinElmer Life Sciences catalog No. AD0225) with determination by time-resolved fluorometry (TRF) of the lanthanide chelate. […] After incubation for 90 minutes at 37° C., the reaction was stopped by filtration over AcroWell 96-well filter plates (Pall Life Sciences). The filter plates were washed 4 times with 200 μL of ice-cold phosphate-buffered saline. DELFIA Enhancement solution (PerkinElmer Life Sciences) was added to each well. […] Each assay was conducted in duplicate and mean values were utilized. Ki values were determined by curve-fitting with Graph-Pad Prism® software using a one-site fixed-slope competition binding model.

In assay [2] the target is T1, human MC4-R. The experiment in a line: cAMP functional assay in HEK-293 T-REx cells expressing human MC4-R, induced with doxycycline 0.1 ng/mL (low density). It is filed as cell-based. Particulars: doxycycline 0.1 ng/mL, averages of all comparable assays; for EC50: human MC4-R cAMP assay, read-out: Ec50; for Emax: HEK293-T-REx, maximal cAMP stimulation, NDP-α-MSH = 100%, read-out: Emax. On the technique in general: Changes in cAMP serve as a functional read-out for many G protein-coupled receptors.

Where [3] appears, read: human MC4-R, averages of all comparable assays, read-out: Ki.

T1 sequence (P32245 whole entry): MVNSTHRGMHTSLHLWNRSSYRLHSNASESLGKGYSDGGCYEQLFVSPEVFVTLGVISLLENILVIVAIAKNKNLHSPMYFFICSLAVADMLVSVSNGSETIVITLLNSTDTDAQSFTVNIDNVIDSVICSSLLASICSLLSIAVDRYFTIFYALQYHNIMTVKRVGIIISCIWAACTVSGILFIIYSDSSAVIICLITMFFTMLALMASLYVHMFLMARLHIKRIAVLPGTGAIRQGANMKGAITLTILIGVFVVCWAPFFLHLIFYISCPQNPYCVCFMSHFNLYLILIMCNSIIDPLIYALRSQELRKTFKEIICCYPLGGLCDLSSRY

Turning to `CC(=O)N[C@@H](CCCNC(=N)N)C(=O)N[C@H]1CC(=O)NCCCC[C@@H](C(=O)O)NC(=O)[C@H](Cc2c[nH]c3ccccc23)NC(=O)[C@H](CCCNC(=N)N)NC(=O)[C@@H](Cc2ccccc2)NC(=O)[C@H](COCc2ccccc2)NC1=O` [reference compound], on human MC4-R [1] (setting [3]), the Ki (commonly the dissociation constant of the complex between target and ligand, obtained from inhibition or displacement) stood at 9 nM. In addition, at human MC4-R [2], the concentration for a half-maximal effect (EC50) (usually the concentration needed to bring the measured effect to its halfway point) is 5 nM.

On to `CC(=O)N[C@@H](CCCCN)C(=O)N[C@H]1CC(=O)NCCCC[C@@H](C(N)=O)NC(=O)[C@H](Cc2c[nH]c3ccccc23)NC(=O)[C@H](CCCNC(=N)N)NC(=O)[C@@H](Cc2ccccc2)NC(=O)[C@H](Cc2c[nH]cn2)NC1=O` [reference compound] (Ac-KDH[dF]RWK-NH2; lactam 2-7), for which the Ki at human MC4-R [1] (setting [3]) stood at 9 nM. On human MC4-R [2], the maximum response (Emax) (as a rule, the maximal effect, on the per cent scale that the assay sets) was 85% and the EC50 was determined as 5 nM.

Take `CC(=O)N[C@@H](CCCNC(=N)N)C(=O)N[C@H]1CC(=O)NCCCC[C@@H](C(N)=O)NC(=O)[C@H](Cc2c[nH]c3ccccc23)NC(=O)[C@H](CCCNC(=N)N)NC(=O)[C@@H](Cc2ccccc2)NC(=O)[C@H](C)NC1=O` [reference compound] (Ac-RDA[dF]RWK-NH2; lactam 2-7): the Ki at human MC4-R [1] (setting [3]) stood at 19 nM. Further, on human MC4-R [2], the Emax stood at 74% and the EC50 worked out at 37 nM.

Take `CC(=O)N[C@@H](CCCNC(=N)N)C(=O)N[C@H]1CC(=O)NCCCC[C@@H](C(N)=O)NC(=O)[C@H](Cc2c[nH]c3ccccc23)NC(=O)[C@H](CCCNC(=N)N)NC(=O)[C@@H](Cc2ccccc2)NC(=O)[C@H](CC(N)=O)NC1=O` [reference compound] (Ac-RDN[dF]RWK-NH2; lactam 2-7): at human MC4-R [1], the Ki turned out to be 32 nM. At human MC4-R [2], the Emax was found to be 91% and the EC50 came out at 42 nM.
